Values of other authors in patent publication EP0548940B1, “Insecticidal compositions” (SUMITOMO CHEMICAL COMPANY LIMITED, priority 1991, dated 1993).

Conditions: at 25°C, water-diluted solution

| pKa value | Compound |
| --- | --- |
| Azelaic acid 4.8 (4.39) | O=C(O)CCCCCCCC(=O)O [Azelaic acid] |
| Boric acid 4.8 (9.24) | OB(O)O [Boric acid] |
